Measurements reported in patent US20220184091A1, “Methods of Treating Cancer with Chk1 Inhibitors” (Sierra Oncology, Inc., priority 2019, published 2022).

Legend:
[1] = Phase 1 clinical study, SRA737 in combination with gemcitabine, dose escalation; assay type: in vivo; conditions: human, mean
Description: A Phase 1 clinical trial was conducted in ‘all comers,’ i.e. no genetic selection was performed, to establish safety, tolerability and pharmacokinetics for SRA737 administered in combination with gemcitabine (“Dose Escalation Phase”). Cohorts consisting initially of a single subject received escalating doses of SRA737, starting in Cohort 1 with 40 mg/day administered orally on days 2, 3, 9, 10, 16, and 17 of each 28-day cycle. Cohorts also received various doses of gemcitabine, starting in Cohort 1 with 300 mg/m^2/day administered IV over 30 minutes on days 1, 8, and 15 of each 28-day cycle.
FIG. 5 presents a summary of dosing amounts for the cohorts tested. In the Dose Escalation Phase, a total of 55 subjects received SRA737 in 13 dose escalation cohorts at doses of 40 to 600 mg SRA737 combined with LDG doses of 50 to 300 mg/m^2.

[2] = system: NSCLC cancer lines (A549, Calu1, Calu6, H1299, H1573, H1944, H1993); assay: Cell viability, NSCLC cancer lines; assay type: cell-based; conditions: read-out: IC50 range
H69 = assay: Micronuclei assay, H69; assay type: cell-based, human; conditions: 1 μM, 24 hours or 48 hours
Description: (§1) H69 cells were cultured as discussed earlier and treated with or without SRA737 (1 μM). Cytochalasin B was added at 20th hour to each culture to give a final concentration of 3 μg/ml and the culture was incubated at 37° C. for up to 24 hrs. After 24 hrs incubation, the cells were centrifuged at 1000 rpm for 5 min. The supernatant was removed and the pellet was treated with weak hypotonic solution (0.075 M KCl/0.9% Saline, 1:9) and incubated at 37° C. for 5 min. After this, the cells were centrifuged and the pellets were fixed in fresh fixative (methanol:acetic acid, 3:1). Cells were dropped onto glass slides were prepared and stained with ProLong® Gold Antifade Mountant with DAPI. In the case of EMT-6 cells, micronuclei formation assays were performed at Phenovista Biosciences, San Diego. The cells were treated with either 1 μM or 5 μM SRA737 for 24h followed by mixing with 4% PFA for 20 minutes at RT directly in the culture wells, washing with PBS and staining with Hoechst (1:1000). The plates were imaged at 40× using the Thermo Fisher Scientific CellInsight CX7 imaging system and the micronuclei algorithm was adjusted to score all nuclei that are <55% of the size of the main nucleus. A total of 25 fields per well were imaged and the data was averaged across 8 replicates.
(§2) SRA737 was also evaluated for induced cytogenetic stress using a micronuclei (MN) assay.

EMT6/P = assay: Micronuclei assay, EMT6/P; assay type: cell-based; conditions: 1 μM, 24 hours or 48 hours
Description: as §1, §2

IFNβ, CXCL10 and CCL5 = assay: qPCR of IFNβ, CXCL10 and CCL5 mRNA in SCLC cell lines; assay type: cell-based; conditions: 24 and 72 hours
Description: “Con” indicates control. Data presented as mean±SD and p values by t-test ***p<0.001.
Real-time PCR was done using SYBR Select Master Mix (Life Technologies, cat #4472908) according to the manufacturer's protocol. Primers were purchased from Sigma Aldrich, Inc. Triplicate PCR reactions were run on ABI (7500 Fast Real Time PCR System). The comparative Ct method using the average 2ΔΔCT value for each set of triplicates was used, and the average of the biological replicates was calculated. Negative controls were included for every primer set, and GAPDH was used as the […].

STING pathway = assay: Immunoblot of STING pathway proteins in resected RPP tumors; assay type: in vivo, mouse; conditions: RPP tumors resected at Day 21
Description: Western blot analysis was performed using SDS-PAGE followed by transfer to nitrocellulose membrane using the BioRad Gel system. Membranes were incubated in the following primary antibodies (1:1000) overnight: PD-L1 (CST), total and phospho- (S366) STING (CST), total and phospho- (S396) IRF3 (CST), phospho-YH2AX (CST) and Actin (Sigma). Secondary anti-rabbit, HRP-linked antibodies were purchased from Cell Signaling Biosciences and detected using the Chemidoc imaging system mage-captured with Image Studio Version 3.1 software.

Pan02 = Pan02 pancreatic flank tumor growth in immunocompetent mice; assay type: in vivo, mouse; conditions: SRA737 100 mg/kg 5-days-on/2-days-off p.o., anti-PD1 BIW 10 mg/kg i.p.
Description: Tumors were evaluated twice weekly for the duration of the study. Tumor volumes were measured on all mice three times per week and calculated (width^2×length×0.4) using manual calipers. Once the average tumor size was in the range of 120-150 mm^3, mice were randomized into dosing groups using stratified sampling by assigning three animals per group for short-term reverse-phase protein array analysis and long-term treatment. Dosing schedules and duration varied depending on the study. Mice were weighed three times per week for the duration of the study, and a decrease in body weight >15% was considered indicative of a toxic dose. The Student t-test was used to determine statistical significance between compound- and vehicle-treated groups.
Tumors cells were implanted into the flank of immunocompetent mice. Once the volumes of the tumor reached 150-200 mm^3, the mice were randomized and treated with either monotherapy of SRA737 at 100 mg/kg for 5-days-on/2-days-off p.o., anti-PD1 BIW at 10 mg/kg i.p. or the combination thereof.

CD4+ and CD8+ cells = assay: CD4 and CD8 IHC staining in MC38 tumors; assay type: in vivo, mouse; conditions: after 14 days, SRA737 7-days-on/7-days-off, antibody Days 3, 7 and 11
Description: Measurements were taken post treatment on day 15.
For immunohistochemistry, cryosections (8 μm) of tumor tissues were fixed with acetone and stained with antibody against mouse CD4 (Sinobiological, Cat. no. 50134-R001) and CD8 (eBioscience, Cat. No. 14-0808-82) and horseradish peroxidase-conjugated secondary antibody. The image of the entire stained tumor section was scanned with an Olympus BX41 microscope and a semi-quantitative immunohistochemical score was determined by visual examination of the entire stained section of the tumor. The score between 0-6 was assigned by taking into consideration the intensity of positive staining within the tumor section and the prevalence of positive staining within the entire tumor section.
The MC38 tumors were then harvested after 14 days of treatment with SRA737 monotherapy and its combination therapy with an […] (Days 3, 7 and 11) according to a modified dosing regimen of 7-days-on/7-days-off to determine the infiltration of CD4+ and CD8+ cells by immunohistochemistry staining. […] The tumor growth inhibition under this altered dosing regimen was 61% in SRA737 monotherapy and 63% in the combination therapy of SRA737 and anti-PD-1. […]

[3] = 600 mg, Day 10, combination with gemcitabine

AUC0-24 ([1]; 40 mg, Day −7): 0.637 µg·h/mL | Cmax ([1]; 80 mg, Day −7): 146 ng/mL | Cmax ([1]; 300 mg, Day −7): 995 ng/mL | AUC0-12 [1, 3]: 11,860 ng · h/mL | Cmax [1, 3]: 2,109 ng/mL | T1/2 ([1]; 600 mg, Day −7): 11.1 h | IC50 [2]: ≥ 0.8 µM
SMILES: N#Cc1cnc(Nc2cc(NCC3CNCCO3)c(C(F)(F)F)cn2)cn1 (stereo not shown) [SRA737, 5-[[4-[[morpholin-2-yl]methylamino]-5-(trifluoromethyl)-2-pyridyl]amino]pyrazine-2-carbonitrile]
micronuclei formation (H69): led to micronuclei formation | micronuclei formation (EMT6/P): led to micronuclei formation | IFNβ, CXCL10 and CCL5 (targets of IRF3) (IFNβ, CXCL10 and CCL5): activated | STING pathway incl. pSTING_S366, pTBK1_S172, cGAS, pIRF3_S396 in tumors (STING pathway): significant activation of the STING pathway | TGI (Pan02): 59% | infiltration of CD4+ and CD8+ cells into the tumors (CD4+ and CD8+ cells): significant increase
